Where a SMILES comes first, the peptide text is derived from it. [ ]: non-standard residue; d: D form. pGlu = O=C1CC[C@@H](C(=O)O)N1
How the values were obtained:
[1] = system: phosphorylated-AKT (pAKT); assay: Post-mortem assessment of insulin sensitivity (pAKT / total-AKT, MSD kits); assay type: in vivo, mouse; details: DIO mice, 28 days after pump surgery, 15 min after 0.75 U/kg insulin challenge; treatment vs vehicle
Procedure: At the end of the 3rd osmotic pump study, mice were given a 0.75 U/kg insulin challenge and culled after 15 min. The liver, white adipose tissue (WAT) and skeletal muscle were dissected out and snap frozen in liquid nitrogen and stored at −70 °C until analysis.
50−100 mg pieces of WAT, liver and skeletal muscle were homogenised in MSD (Rockville, MD, USA) lysis buffer with various protease inhibitors supplied by MSD and Qiagen metal bead. Homogenised tissue was allowed to rest at 4 °C for 2 h to allow protein solubilisation and then centrifuged (10 000 g, 10 min, 4 °C). Supernatants were aspirated and stored at -70 °C till analysis. Protein content of all homogenised tissue samples was assessed using a Pierce BCA protein assay kit (Thermo Fisher Scientific) according to the manufacturer’s instructions.
Tissue homogenates were diluted in MSD lysis buffer to the same protein content. Total and phosphorylated-AKT (pAKT) were quantified using respective kits from MSD (total-AKT kit catalogue number: K150MOD-1, pAKT (Ser473) kit catalogue number: K151CAD-1) according to the manufacturer’s instructions.
Fig. 8 Phosphorylated-AKT (pAKT) expressed as a percentage of total AKT in liver (A), skeletal muscle (B) and white adipose tissue (WAT) (C) 15 min after a 0.75 U/kg insulin challenge. (D) Body weights vs pAKT as a percentage of total-AKT. […]

primary mouse islets = assay: Islet secretion studies; assay type: cell-based; details: 100 nM peptide, 1 or 16.7 mM glucose, 45 min at 37 °C, LC–MS/MS, n = 9 per group, Mann-Whitney U test
Procedure: Mice were culled by cervical dislocation and the pancreas inflated by […] injection of a 0.75 mg/mL collagenase V (Sigma-Aldrich) solution in HBSS before removal of the pancreas. The pancreas was incubated at 37 °C for 12 min to liberate islets. The digested tissue was washed in HBSS with 0.1 % BSA before islets were hand-picked under a light microscope. Islets were rested for 1 h by incubating at 37 °C in Krebs’s ringer buffer (KRB, 129 mM NaCl, 2 mM NaHCO3, 4.8 mM KCl, 1.2 mM KH2PO4, 2.5 mM CaCl2, 1.2 mM MgSO4, 10 mM HEPES and adjusted to pH 7.4 with 1 M NaOH.) with 0.1 % BSA and 5.5 mM glucose. Ten size matched islets were then transferred to a 2 mL protein LoBind Eppendorf tubes for 45 min at 37 °C with KRB + 0.001% BSA + one of the following: 1 mM glucose, 16.7 mM glucose, 1 mM glucose + 100 nM Gast p59−79 or 16.7 mM glucose + 100 nM Gast p59−79. At the end of the incubation the supernatant was removed and snap frozen. On the day of analysis all supernatants were defrosted, acidified with 30 μL of 1% FA (aq) (v/v) and extracted with SPE.
Peptides were quantified on as in section 2.8.3. Table 2 details the peptides quantified as well as their product ions, precursor ions, collision energies and dwell times.
Fig. 9 Effect of Gast p59-79 on glucagon (A), insulin-1 (B) and SST-14 (C) secretion from isolated mouse islets. Data represents n = 9 per group. Statistical analysis was performed using a Mann-Whitney U test. Data expressed as peak area normalised to islet number.

## CC[C@H](C)[C@H](NC(=O)[C@H](Cc1ccccc1)NC(=O)[C@H](Cc1c[nH]cn1)NC(=O)[C@H](CCC(N)=O)NC(=O)[C@@H]1CCCN1C(=O)CNC(=O)[C@H](CCC(N)=O)NC(=O)[C@@H]1CCCN1C(=O)CNC(=O)[C@H](CC(C)C)NC(=O)[C@@H]1CCC(=O)N1)C(=O)N[C@@H](C)C(=O)N[C@@H](CC(=O)O)C(=O)N[C@@H](CC(C)C)C(=O)N[C@@H](CO)C(=O)N[C@@H](CCCCN)C(=O)N[C@@H](CCCCN)C(=O)N[C@@H](CCC(N)=O)C(=O)N[C@@H](CCCNC(=N)N)C(=O)N1CCC[C@H]1C(=O)N[C@@H](CCCNC(=N)N)C(=O)O [Gast p59−79] ([pGlu]LGPQGPQHFIADLSKKQRPR-OH; C-terminus assumed)
[1]
  percentage of pAKT (of total AKT) in liver, WAT and skeletal muscle: No effect
Primary mouse islets
  SST-14 secretion from isolated islets: No significant effect
  glucagon secretion from isolated islets: No significant effect
  insulin-1 secretion from isolated islets: No significant effect

— paper PMC8121762, “Peptidomics of enteroendocrine cells and characterisation of potential effects of a novel preprogastrin derived-peptide on glucose tolerance in lean mice” (Peptides, 2021)
